Experimental findings from BindingDB's records for doi:10.3109/14756366.2013.813942 (Istituto di Biostrutture e Bioimmagini-CNR, 2014) are described below.

The target of the test is T1, Carbonic anhydrase [110-330] (Coastal plain yellowtops, UniProt P46510).
T1 construct: 110-330
T1 sequence (P46510 whole entry): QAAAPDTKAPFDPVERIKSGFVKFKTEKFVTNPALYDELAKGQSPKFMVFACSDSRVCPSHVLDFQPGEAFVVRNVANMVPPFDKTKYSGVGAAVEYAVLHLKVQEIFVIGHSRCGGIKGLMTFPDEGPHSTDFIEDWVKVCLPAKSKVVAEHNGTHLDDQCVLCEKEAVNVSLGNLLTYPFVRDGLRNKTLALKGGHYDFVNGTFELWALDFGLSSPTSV
In words: Stopped Flow CO2 Hydration Assay. Particulars: pH 8.3; 20 °C. How it is done: Inhibition constants of carboxylate inhibitors against F. bidentis CA I were determined by a stopped flow CO2 hydration assay at 20 °C.

Where a name gives a salt, the structure may show the parent alone. Bounds are passed on as bounds.

As a reminder, the Ki is a measure of affinity in units of concentration, obtained from inhibition or displacement. The low end stands for a stronger hold on the target, the high end for a looser hold on the target. Turning to `CCCCC(=O)O`, the inhibitory constant (Ki) amounted to 77.5 µM.

Take `CCCC(=O)O`: the affinity corresponds to a Ki of 82.3 µM.

The compound `O=CO` yielded a Ki of 97.5 µM.

Compound `CC(O)C(=O)O` (centres undefined) had a Ki of 74.1 µM.

Compound `O=C(O)CC(O)C(=O)O` (centres undefined) displayed a Ki of 92.5 µM.

Take `CCC(=O)O`: the Ki amounted to 91 µM.

In the case of `O=C(O)C(=O)O`, the Ki stood at 93 µM.

`O=C(O)c1c(F)c(F)cc(F)c1F` [2,3,5,6-F4-Benzoate] had a Ki of 51.2 µM.

With `CC(=O)C(=O)O` [Pyruvate], the inhibitory constant (Ki) was more than 10000 µM.

With `O=C(O)c1ccccc1` [SODIUM BENZOATE], the affinity, expressed as Ki, was 64.5 µM.

Compound `O=C(O)CC(O)(CC(=O)O)C(=O)O` [SODIUM CITRATE] gave a Ki of 41.4 µM.

For the compound `CC(=O)O` [sodium acetate], the Ki worked out at 95.1 µM.

With `O=C(O)/C=C\C(=O)O` [sodium maleate], the affinity, expressed as Ki, was 73.2 µM.

In turn, `O=C(O)CC(=O)O` [sodium malonate] displayed a Ki of 100 µM.
